Laboratory results from patent US12060576B2, “Compositions and methods for producing megakaryocytes” (Stellular Bio, Inc., priority 2018, dated 2024).

What was measured:
PBG1 iPSCs [1] = assay: Phase I directed differentiation of PBG1 iPSCs to hemogenic endothelium, immunofluorescence staining of CD31 and CD34; format: cell-based, human; conditions: Laminin 521 matrix, versus control without WNT agonist
Excerpt: FIG. 26A, FIG. 26B, and FIG. 26C depict immunofluorescence microscopy images of Day 6 Phase I cultures on Laminin 521. FIG. 26A depicts a control culture without WNT agonist.

PBG1 iPSCs [2] = conditions: 0.6 uM in the first 48 hours of Phase I; Day 6+4; Laminin 521 matrix; versus control
PBG-1 iPSCs = assay: Directed differentiation of PBG-1 to preMKs and MKs on a recombinant Laminin-521 matrix compared with Collagen IV, flow cytometry; format: cell-based, human; conditions: 3 days of Phase III (Day 6+6+3); preMKs from Laminin-521 or Collagen IV cultures
Protocol: FIG. 23A, FIG. 23B, and FIG. 23C depict use of recombinant Laminin 521 to support production and release of megakaryocytic progenitors in Phase II of directed differentiation of PBG1 cells. FIG. 23A depicts representative flow cytometric data from Phase II of PBG1 differentiation cultures utilizing a supportive matrix of 4.2 ug/cm^2 human Collagen IV. FIG. 23B depicts representative flow cytometric data from Phase II of PBG1 differentiation cultures utilizing a supportive matrix of 0.13 ug/cm^2 recombinant human Laminin 521. FIG. 23C depicts the cumulative yields of released preMKs (i.e. viable CD41+CD43+CD14−) per 6-well equivalent (i.e. 2 ml of media, 9.5 cm^2 surface area) between day 6+4 and 6+8 of Phase II directed differentiation cultures initiated with PBG1 iPSCs, utilizing a supportive matrix of 4.2 ug/cm^2 human Collagen IV or 0.13 ug/cm^2 recombinant human Laminin 521.
FIG. 25A and FIG. 25B show flow cytometric subset breakdowns of Phase III (Day 6+6+3) cultures. […] Non-MKs are CD61−, Immature MKs are CD61+CD42a−CD42b−, Apoptotic MKs are CD61+CD42a+CD42b−, and Mature MKs are CD61+CD42a+CD42b+.
Collagen IV is purified from human placental material and is only available as a Research Use Only reagent. […]

CHIR98014
Phase I differentiation efficiency at day 6 (CD31 and CD34 staining) (PBG1 iPSCs [1]; 0.6 uM for the first 48 hours of differentiation only): dramatic increase
Phase II output of preMKs (visual estimation of the number of CD41+ cells) (PBG1 iPSCs [2]): higher output during Phase II

Laminin-521: recombinant human laminin 521, supportive matrix replacing Collagen IV for directed differentiation
Proportion of CD61+ cells co-expressing CD42a and CD42b in Phase III versus Collagen IV (PBG-1 iPSCs): found to be similar

Cc1c[nH]c(-c2cnc(NCCNc3ccc(C#N)cn3)nc2-c2ccc(Cl)cc2Cl)n1 [CHIR99021]
Phase I differentiation efficiency at day 6 (CD31 and CD34 staining) (PBG1 iPSCs [1]; 6 uM for the first 48 hours of differentiation only): dramatic increase
